According to PubChem BioAssay (NCI):
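Values below derive from 48-hour exposures of cells grown in 96-well plates, with endpoints linearly interpolated between the two concentrations bracketing the appropriate inhibition level. The concentration for full growth arrest is given as TGI.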

Columns and labels:
Assay in all cases: NCI anticancer screen, dose series, 48 h
UACC-257 melanoma = system: UACC-257 melanoma
OVCAR-8 ovarian = system: OVCAR-8 ovarian
SK-OV-3 ovarian = system: SK-OV-3 ovarian
HCT-15 colon = system: HCT-15 colon
OVCAR-3 ovarian = system: OVCAR-3 ovarian
COLO 205 colon = system: COLO 205 colon
LOX IMVI melanoma = system: LOX IMVI melanoma
SF-268 CNS = system: SF-268 CNS
KM12 colon = system: KM12 colon
ACHN renal = system: ACHN renal
RXF 393 renal = system: RXF 393 renal
SNB-75 CNS = system: SNB-75 CNS
SW-620 colon = system: SW-620 colon
OVCAR-5 ovarian = system: OVCAR-5 ovarian
IGROV1 ovarian = system: IGROV1 ovarian
NCI/ADR-RES ovarian = system: NCI/ADR-RES ovarian
SNB-19 CNS = system: SNB-19 CNS
SF-539 CNS = system: SF-539 CNS
MDA-MB-231 breast = system: MDA-MB-231 breast
MDA-MB-435 = system: MDA-MB-435
CAKI-1 renal = system: CAKI-1 renal
UO-31 renal = system: UO-31 renal
T-47D breast = system: T-47D breast
HOP-62 NSCLC = system: HOP-62 NSCLC
MOLT-4 leukemia = system: MOLT-4 leukemia
HL-60(TB) leukemia = system: HL-60(TB) leukemia
HCC-2998 colon = system: HCC-2998 colon
A498 renal = system: A498 renal
SN12C renal = system: SN12C renal
NCI-H460 lung = system: NCI-H460 lung
NCI-H23 lung = system: NCI-H23 lung
U251 CNS = system: U251 CNS
HT29 colon = system: HT29 colon
NCI-H522 lung = system: NCI-H522 lung
PC-3 prostate = system: PC-3 prostate
SK-MEL-2 melanoma = system: SK-MEL-2 melanoma
SF-295 CNS = system: SF-295 CNS
SK-MEL-28 melanoma = system: SK-MEL-28 melanoma
CCRF-CEM leukemia = system: CCRF-CEM leukemia
TK-10 renal = system: TK-10 renal
K-562 leukemia = system: K-562 leukemia
SK-MEL-5 melanoma = system: SK-MEL-5 melanoma
DU-145 prostate = system: DU-145 prostate
A549 NSCLC = system: A549 NSCLC
M14 melanoma = system: M14 melanoma
EKVX NSCLC = system: EKVX NSCLC
MCF7 breast = system: MCF7 breast
MALME-3M melanoma = system: MALME-3M melanoma
NCI-H226 lung = system: NCI-H226 lung
OVCAR-4 ovarian = system: OVCAR-4 ovarian
HCT-116 colon = system: HCT-116 colon
MDA-N = system: MDA-N
UACC-62 melanoma = system: UACC-62 melanoma
786-0 renal = system: 786-0 renal
SR leukemia = system: SR leukemia
BT-549 breast = system: BT-549 breast
HOP-92 NSCLC = system: HOP-92 NSCLC
RPMI-8226 leukemia = system: RPMI-8226 leukemia

Q: Which results are given for O=c1c2ccccc2n2c(=S)[nH]nc2n1-c1ccccc1?
A: TGI (UACC-257 melanoma): > 100 µM; TGI (OVCAR-8 ovarian): > 100 µM; TGI (SK-OV-3 ovarian): > 100 µM; TGI (HCT-15 colon): > 100 µM; TGI (OVCAR-3 ovarian): > 100 µM; TGI (COLO 205 colon): > 100 µM; TGI (LOX IMVI melanoma): > 100 µM; TGI (SF-268 CNS): > 100 µM; TGI (KM12 colon): > 100 µM; TGI (ACHN renal): > 100 µM; TGI (RXF 393 renal): > 100 µM; TGI (SNB-75 CNS): 84 µM; TGI (SW-620 colon): > 100 µM; TGI (OVCAR-5 ovarian): > 100 µM; TGI (IGROV1 ovarian): > 100 µM; TGI (NCI/ADR-RES ovarian): > 100 µM; TGI (SNB-19 CNS): > 100 µM; TGI (SF-539 CNS): > 100 µM; TGI (MDA-MB-231 breast): > 100 µM; TGI (MDA-MB-435): > 100 µM; TGI (CAKI-1 renal): > 100 µM; TGI (UO-31 renal): > 100 µM; TGI (T-47D breast): > 100 µM; TGI (HOP-62 NSCLC): > 100 µM; TGI (MOLT-4 leukemia): > 100 µM; TGI (HL-60(TB) leukemia): > 100 µM; TGI (HCC-2998 colon): > 100 µM; TGI (A498 renal): > 100 µM; TGI (SN12C renal): > 100 µM; TGI (NCI-H460 lung): > 100 µM; TGI (NCI-H23 lung): > 100 µM; TGI (U251 CNS): > 100 µM; TGI (HT29 colon): > 100 µM; TGI (NCI-H522 lung): > 100 µM; TGI (PC-3 prostate): > 100 µM; TGI (SK-MEL-2 melanoma): > 100 µM; TGI (SF-295 CNS): > 100 µM; TGI (SK-MEL-28 melanoma): > 100 µM; TGI (CCRF-CEM leukemia): > 100 µM; TGI (TK-10 renal): > 100 µM; TGI (K-562 leukemia): > 100 µM; TGI (SK-MEL-5 melanoma): > 100 µM; TGI (DU-145 prostate): > 100 µM; TGI (A549 NSCLC): > 100 µM; TGI (M14 melanoma): > 100 µM; TGI (EKVX NSCLC): > 100 µM; TGI (MCF7 breast): > 100 µM; TGI (MALME-3M melanoma): > 100 µM; TGI (NCI-H226 lung): > 100 µM; TGI (OVCAR-4 ovarian): > 100 µM; TGI (HCT-116 colon): > 100 µM; TGI (MDA-N): > 100 µM; TGI (UACC-62 melanoma): > 100 µM; TGI (786-0 renal): > 100 µM; TGI (SR leukemia): > 100 µM

Q: Which results are given for Cc1cc(-c2c(Br)cc(C(=O)O)n2C)on1?
A: TGI (UACC-257 melanoma): > 100 µM; TGI (OVCAR-8 ovarian): > 100 µM; TGI (SK-OV-3 ovarian): > 100 µM; TGI (HCT-15 colon): > 100 µM; TGI (BT-549 breast): > 100 µM; TGI (OVCAR-3 ovarian): > 100 µM; TGI (COLO 205 colon): > 100 µM; TGI (LOX IMVI melanoma): > 100 µM; TGI (SF-268 CNS): > 100 µM; TGI (KM12 colon): > 100 µM; TGI (ACHN renal): > 100 µM; TGI (SNB-75 CNS): > 100 µM; TGI (SW-620 colon): > 100 µM; TGI (OVCAR-5 ovarian): > 100 µM; TGI (NCI/ADR-RES ovarian): > 100 µM; TGI (SNB-19 CNS): > 100 µM; TGI (SF-539 CNS): > 100 µM; TGI (MDA-MB-231 breast): > 100 µM; TGI (MDA-MB-435): > 100 µM; TGI (CAKI-1 renal): > 100 µM; TGI (UO-31 renal): > 100 µM; TGI (T-47D breast): > 100 µM; TGI (HOP-62 NSCLC): > 100 µM; TGI (HOP-92 NSCLC): > 100 µM; TGI (MOLT-4 leukemia): > 100 µM; TGI (HL-60(TB) leukemia): > 100 µM; TGI (A498 renal): > 100 µM; TGI (SN12C renal): > 100 µM; TGI (NCI-H460 lung): > 100 µM; TGI (NCI-H23 lung): > 100 µM; TGI (U251 CNS): > 100 µM; TGI (HT29 colon): > 100 µM; TGI (NCI-H522 lung): > 100 µM; TGI (PC-3 prostate): > 100 µM; TGI (SK-MEL-2 melanoma): > 100 µM; TGI (SF-295 CNS): > 100 µM; TGI (SK-MEL-28 melanoma): > 100 µM; TGI (CCRF-CEM leukemia): > 100 µM; TGI (RPMI-8226 leukemia): > 100 µM; TGI (TK-10 renal): > 100 µM; TGI (K-562 leukemia): > 100 µM; TGI (SK-MEL-5 melanoma): > 100 µM; TGI (DU-145 prostate): > 100 µM; TGI (A549 NSCLC): > 100 µM; TGI (M14 melanoma): > 100 µM; TGI (EKVX NSCLC): > 100 µM; TGI (MALME-3M melanoma): > 100 µM; TGI (NCI-H226 lung): > 100 µM; TGI (OVCAR-4 ovarian): > 100 µM; TGI (HCT-116 colon): > 100 µM; TGI (MDA-N): > 100 µM; TGI (UACC-62 melanoma): > 100 µM; TGI (786-0 renal): > 100 µM
